Data on six compounds can be found in US9546194B2, “Aminosteroids for the treatment of a PTP1B associated disease” (Ohr Pharmaceutical Inc., priority 2012, dated 2017).

The structures appear in SMILES notation.

Assay [1] deals with T1, full length tyrosine phosphatase PTP1B (Homo sapiens, UniProt P18031).
T1 construct: purchased
T1 sequence (P18031 1-435): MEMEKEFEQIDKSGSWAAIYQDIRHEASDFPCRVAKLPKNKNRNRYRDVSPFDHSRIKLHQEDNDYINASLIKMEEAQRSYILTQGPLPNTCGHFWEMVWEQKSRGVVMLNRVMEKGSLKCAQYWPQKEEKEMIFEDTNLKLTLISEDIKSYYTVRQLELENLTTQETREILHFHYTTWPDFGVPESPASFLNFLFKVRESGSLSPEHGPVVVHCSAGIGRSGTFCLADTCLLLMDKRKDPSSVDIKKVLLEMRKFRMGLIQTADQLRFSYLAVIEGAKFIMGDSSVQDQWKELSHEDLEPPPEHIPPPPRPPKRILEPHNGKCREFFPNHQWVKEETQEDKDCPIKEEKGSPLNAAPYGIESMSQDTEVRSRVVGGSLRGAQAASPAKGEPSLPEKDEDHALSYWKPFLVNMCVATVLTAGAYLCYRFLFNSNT
As to the kind of experiment: Inhibition of PTP1B (pNPP hydrolysis, absorbance at 405 nm). Format: biochemical. The settings on record: 5 μM aminosteroid analogue; pNPP substrate; read-out: PTP1B % Inhib. at (5 μM). As for the experimental part: (§1) The aminosteroid analogues were tested for inhibition against the commercially available full length tyrosine phosphatase PTP1B. The ability of each analogue to inhibit the activity of PTP1B was measured in the presence of 5 μM of the aminosteroid analogue. The assay uses para-nitro-phenyl phosphate (pNPP), a non-specific substrate to assess phosphatase activity. Phosphatase activity was based on the ability of PTP1B to catalyze the hydrolysis of pNPP to p-nitrophenol (pNP).

For the next assay, the target named is T2, full length TCPTP (Homo sapiens, UniProt P17706).
T2 construct: except full length TCPTP was used as the enzyme
T2 sequence (P17706 1-415): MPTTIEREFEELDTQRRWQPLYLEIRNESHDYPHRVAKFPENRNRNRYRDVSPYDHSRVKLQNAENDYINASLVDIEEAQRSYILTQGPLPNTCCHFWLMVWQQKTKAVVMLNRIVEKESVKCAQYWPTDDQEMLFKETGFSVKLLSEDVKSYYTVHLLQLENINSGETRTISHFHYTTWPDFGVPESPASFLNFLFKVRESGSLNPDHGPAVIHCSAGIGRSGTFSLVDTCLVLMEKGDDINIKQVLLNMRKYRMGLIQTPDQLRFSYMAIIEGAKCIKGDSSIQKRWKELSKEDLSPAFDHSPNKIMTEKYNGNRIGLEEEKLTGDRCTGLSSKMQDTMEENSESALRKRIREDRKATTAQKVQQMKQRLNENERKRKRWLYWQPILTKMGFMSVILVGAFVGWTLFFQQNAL
As to the kind of experiment: Inhibition of TCPTP (pNPP hydrolysis, same manner as PTP1B assay). In kind it is biochemical. The settings on record: 200 μM inhibitor; pNPP substrate; read-out: TCPTP % Inhib. at (200 μM). As for the experimental part:
as §1
The aminosteroid analogues were also tested for their ability to inhibit the tyrosine phosphatase TCPTP as an indication of their potential toxicity by the inhibition of the immune response. The TCPTP inhibition assay was done in the same manner as the PTP1B assay except full length TCPTP was used as the enzyme and the inhibitor was at a concentration of 200 μM. The results of the TCPTP inhibition assays are shown in Table 1, column 4 and show three compounds that inhibit TCPTP less than 50% even at a […] greater concentration.

The subject of assay [2] is ob/ob (Lep^ob) mouse. As to the kind of experiment: Fasting blood glucose (FBG) in ob/ob mouse. As to conditions: ob/ob mice; 5 or 10 mg/kg ip every 3 days, 4 doses; study day 14 after overnight fast. Format: in vivo. As for the experimental part: (§2) To determine in vivo efficacy of the aminosteroid analogues an ob/ob (Lep^ob) mouse model was used. Ob/ob mice are extensively used for screening of antidiabetic and/or anti-obesity agents. Ob/ob mice were treated with either saline or 5 or 10 mg/kg aminosteroid analogue every 3 days for a total of 4 doses via ip injection. Body weight, glucose tolerance and fasting blood glucose levels were measured for each group during the study. Each group had at least an N of 4 animals. All reagents and lab animals are commercially available.
On study day 13, all animal groups were fasted overnight. On study day 14, 25 μL of whole blood was collected and analyzed for the glucose level (mg/dL) using a glucose analyzer.

Assay [3] can be described thus: Body weight change in ob/ob mouse. Format: in vivo. The settings on record: ob/ob mice; 5 or 10 mg/kg ip every 3 days, 4 doses; % change in body weight vs study day 0, up to 30 days. As for the experimental part:
as §2
Starting at study day 0, body weight measurements were taken every day for each group for up to 30 days. Percent change in body weight was calculated as the fractional response of body weight on study day X over the original body weight on study day 0.

Assay [4] concerns ob/ob (Lep^ob) mouse. As to the kind of experiment: Oral glucose tolerance test (OGTT) in ob/ob mouse. In kind it is in vivo. The settings on record: ob/ob mice; for change in vivo: Mus musculus, 336 h, 5 or 10 mg/kg ip every 3 days, 4 doses, OGTT study day 14, 1.5 g/kg oral glucose, 0-120 min, read-out: AbAUC % Change From Saline; for reduction in AbAUC compared to saline control (significance): OGTT study day 14, p<0.05. As to the method: as §2
On study day 14, an oral glucose tolerance test (OGTT) was performed to assess glucose tolerance. At time 0, an oral glucose challenge (1.5 g/kg) was administered by oral gavage. At time points 0, 15, 30, 60, 90, and 120 min post glucose load, 25 μl of whole blood was withdrawn from the tail vein of the animal and the glucose level was measured using a glucose analyzer. The glucose concentration vs time was plotted and the above baseline area under the curve (AbAUC) of the glucose excursion time curve was determined using trapezoidal rule analyses.

In the case of `COC(=O)CC[C@@H](C)[C@H]1CCC2C3C(CC[C@@]21C)[C@@]1(C)CC[C@H](NCCCCNCc2cccnc2)C[C@@H]1C[C@H]3O` (stereo partly shown) [MSI-2511], in assay [1], the inhibition at 5 µM was 93%. In addition, the inhibition at 200 µM at full length TCPTP stood at 0%. Besides, the “FBG % Change From Saline” value in the assay on ob/ob (Lep^ob) mouse [2] amounted to 5.1%. Besides, the “% BW Nader” value in assay [3] was −0.9%. In addition, in the assay on ob/ob (Lep^ob) mouse [4], the change in vivo is -34.6% and the “reduction in AbAUC compared to saline control (significance)” value (shortened to “reduction in AbAUC … (significance)”) is reported as “significant reduction”.

As to `COC(=O)CC[C@@H](C)[C@H]1CCC2C3CC[C@@H]4C[C@H](NCc5ccccn5)CC[C@]4(C)C3C[C@H](O)[C@@]21C` (stereo partly shown) [MSI-2512], the inhibition at 5 µM in assay [1] came out at 90%. In addition, on full length TCPTP, the inhibition at 200 µM was -2%. In addition, the “FBG % Change From Saline” value in the assay on ob/ob (Lep^ob) mouse [2] is reported as 45.8%. Moreover, the “% BW Nader” value in assay [3] was found to be 0.4%. In addition, in the assay on ob/ob (Lep^ob) mouse [4], the change in vivo is -5.8%.

On to `COC(=O)CC[C@@H](C)[C@H]1CCC2C3C[C@@H](O)[C@H]4C[C@H](NCCNC(C)C)CC[C@]4(C)C3CC[C@@]21C` (stereo partly shown) [MSI-2514], for which the inhibition at 5 µM in assay [1] was 96%. Also, the inhibition at 200 µM on full length TCPTP was found to be 30%. The “FBG % Change From Saline” value in the assay on ob/ob (Lep^ob) mouse [2] is 9.2%. In assay [3], the “% BW Nader” value is on record as −1.5%. Besides, the change in vivo with ob/ob (Lep^ob) mouse [4] is -11.6%.

For the compound `COC(=O)CC[C@@H](C)[C@H]1CCC2C3C(CC[C@@]21C)[C@@]1(C)CC[C@H](NCCNC(C)C)C[C@H]1C[C@H]3O` (stereo partly shown) [MSI-2520], the inhibition at 5 µM in assay [1] stood at 103%. Further, on full length TCPTP, the inhibition at 200 µM was found to be 19%. Also, in the assay on ob/ob (Lep^ob) mouse [2], the “FBG % Change From Saline” value is on record as 34.7%. Also, the “% BW Nader” value in assay [3] worked out at 0.5%. Also, in the assay on ob/ob (Lep^ob) mouse [4], the change in vivo is -30.1% and the “reduction in AbAUC … (significance)” value was “significant reduction”.

For `COC(=O)CC[C@@H](C)[C@H]1CCC2C3C(CC[C@@]21C)[C@@]1(C)CCC(NCCNC(C)C)C[C@@H]1C[C@H]3NS(C)(=O)=O` (stereo partly shown) [MSI-2527], in assay [1], the inhibition at 5 µM is 102%. Also, the inhibition at 200 µM at full length TCPTP stood at 15%. For the same compound, the “FBG % Change From Saline” value with ob/ob (Lep^ob) mouse [2] turned out to be 32.2%. Besides, the “% BW Nader” value in assay [3] is on record as 0.0%. Also, in the assay with ob/ob (Lep^ob) mouse [4], the change in vivo was -33% and the “reduction in AbAUC … (significance)” value is “significant reduction”.

`COC(=O)CC[C@@H](C)[C@H]1CCC2C3C(CC[C@@]21C)[C@@]1(C)CC[C@H](NCCNC(C)C)C[C@@H]1C[C@H]3NC(C)=O` (stereo partly shown) [MSI-2532]: the inhibition at 5 µM in assay [1] was found to be 53%. Also, the inhibition at 200 µM at full length TCPTP worked out at 4%. Besides, the “FBG % Change From Saline” value with ob/ob (Lep^ob) mouse [2] is −0.7%. Further, the “% BW Nader” value in assay [3] is −0.8%. For the same compound, in the assay with ob/ob (Lep^ob) mouse [4], the change in vivo was -56.6% and the “reduction in AbAUC … (significance)” value is on record as “significant reduction”.
